Laboratory results as given in patent publication US6211215A, “Heterocyclic compounds, their production and use” (Takeda Chemical Industries, Ltd., priority 1996, dated 2001).

How the values were obtained:
HER2 = HER2 (Homo sapiens, UniProt P04626); assay: Inhibition of phosphorylation of receptor tyrosine in human breast cancer cells (2), MCF-7, heregulin-stimulated; assay type: cell-based; design: Human breast cancer cell line MCF-7 was used; endogenous in cells; host or cells: MCF-7; settings: heregulin control = 100%, read-out: Phosphorylation of receptor tyrosine residue (%)
HER2, sequence (P04626 23-1255): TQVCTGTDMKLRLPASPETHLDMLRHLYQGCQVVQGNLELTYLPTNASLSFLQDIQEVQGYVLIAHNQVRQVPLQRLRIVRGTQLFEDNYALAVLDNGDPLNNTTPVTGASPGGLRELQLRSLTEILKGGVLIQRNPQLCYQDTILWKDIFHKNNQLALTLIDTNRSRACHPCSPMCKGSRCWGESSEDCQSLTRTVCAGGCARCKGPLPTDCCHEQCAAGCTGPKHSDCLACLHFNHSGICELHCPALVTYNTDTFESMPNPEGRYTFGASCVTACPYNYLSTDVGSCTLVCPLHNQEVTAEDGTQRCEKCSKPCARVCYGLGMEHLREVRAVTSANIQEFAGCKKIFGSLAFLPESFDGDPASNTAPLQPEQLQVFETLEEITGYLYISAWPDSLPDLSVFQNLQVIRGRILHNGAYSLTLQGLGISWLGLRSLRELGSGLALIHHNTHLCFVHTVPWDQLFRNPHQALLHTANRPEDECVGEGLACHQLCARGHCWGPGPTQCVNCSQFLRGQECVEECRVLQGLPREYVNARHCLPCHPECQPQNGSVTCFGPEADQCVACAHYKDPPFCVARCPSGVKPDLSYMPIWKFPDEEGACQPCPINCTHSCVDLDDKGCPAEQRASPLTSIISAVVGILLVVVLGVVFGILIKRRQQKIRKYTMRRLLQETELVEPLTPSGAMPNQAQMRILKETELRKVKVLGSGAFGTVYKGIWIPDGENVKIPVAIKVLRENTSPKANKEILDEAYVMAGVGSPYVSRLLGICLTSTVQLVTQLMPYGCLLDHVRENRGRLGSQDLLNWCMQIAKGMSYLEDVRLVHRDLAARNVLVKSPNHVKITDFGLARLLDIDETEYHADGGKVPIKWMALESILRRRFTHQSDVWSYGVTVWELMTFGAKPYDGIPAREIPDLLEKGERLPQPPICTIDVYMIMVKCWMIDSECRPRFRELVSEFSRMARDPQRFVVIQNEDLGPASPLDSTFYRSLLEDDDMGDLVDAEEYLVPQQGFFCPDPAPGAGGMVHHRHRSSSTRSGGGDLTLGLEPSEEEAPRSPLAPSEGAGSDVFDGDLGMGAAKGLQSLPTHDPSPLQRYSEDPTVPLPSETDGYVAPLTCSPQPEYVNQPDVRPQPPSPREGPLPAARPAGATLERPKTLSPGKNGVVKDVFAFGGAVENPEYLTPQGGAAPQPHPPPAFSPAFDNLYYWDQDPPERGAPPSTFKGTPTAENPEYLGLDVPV
Procedure: Human breast cancer cell line MCF-7 was used. 1,000 μl of the cell suspension (250,000 cells) was seeded in each well of the 24-well plates. The culture were incubated at 37° C. in a 5% carbon dioxide gas incubator. On the next day, 100 μl of the 10-fold serial dilution of each compound solution was added to each well and, 2 hours later, 0.5 μg/ml of heregulin was added to it. After 5 minutes the extract solution was added to it to terminate the reaction, and the protein fraction was extracted. The protein was fractionated by the protein electrophoresis. The protein in the electrophoretic gel was transferred to a nylon filter. The filter was allowed to react with the phosphorylated tyrosine-specific antibody. The reaction product was fluorescence-labeled to expose a photofilm. The intensity of the exposure on the photofilm was quantitated by an image-analyzing apparatus. The proportion of the phosphorylation of HER2 tyrosine in the cells added with a compound solution of each concentration was calculated designating the phosphorylation of HER2 tyrosine in the heregulin-added cells as 100%.

[1] = tested on: human prostate cancer cell line, LNCaP; assay: In vivo inhibition of prostate cancer (2); design: species or system male Balb/C-strain athymic nude mice; settings: for Tumor growth rate (%): 60 mg/kg/day, oral, 30 mg/kg twice daily for 21 days
Procedure: 5,000,000 cells of human prostate cancer cell line, LNCaP, were suspended in a gelmatrix solution and implanted subcutaneously at the breast in 8-week old male Balb/C-strain athymic nude mice (Friedman R. et al., Proceedings of the National Academy of Sciences of the U.S.A. Vol. 87, pp.6698-6702, 1990). 33 days after the implantation, the diameters of tumors were measured. Five mice per group with similar tumor size were used for the experiment. Compound 8 of the present invention was suspended in a 5% gum arabic solution (physiological saline) and administered orally twice daily in a dose of 30 mg/kg body weight for 21 days. For another experiment, the mice were castrated 33 days after implantation of the cancer cell for observing the effect of hormone depletion on the prostate cancer growth. Furthermore, Compound 8 of the present invention was administered orally twice daily in a dose of 30 mg/kg body weight for 21 days to the castrated mice. After the completion of the dosing, the diameters of tumor were measured. The tumor volume was calculated by the following formula: volume of tumor=longest diameter×shortest diameter×shortest diameter×1/2. The growth rate of tumors was obtained as the proportion to the volume of tumor in the control animals in which only the gum arabic solution was administered. The body weights of mice administered with Compound 8 of the present invention were measured during the experiment to observe no decrease.

[2] = tested on: human mammary cancer cell line; assay: Selective in vitro inhibition of breast cancer cell growth (panel of cell lines, Test Example 6); assay type: cell-based; settings: Table 6 cell lines
Procedure: 100 μl (containing 2,000 cells) of a cell suspension of various human breast cancer cell lines shown in [Table 6] was seeded in each well of the 96-well microtiter plates. The cells were incubated at 37° C. in a 5% carbon dioxide gas incubator. Next day, 100 μl of a 2 fold serial dilution of a compound solution was added to each well. The cultures were incubated for 3 days. The solution containing the compound was removed and the cells were washed with water. To the cells was added a 0.4% (V/W) dye SRB (dissolved in 1% acetic acid) solution to fix and stain the cell protein. The dye solution was removed and the fixed and stained cell protein was washed. The protein-bound dye was extracted with 200 μl of 10 mM Tris buffer. The optical density of the extracted dye was determined at the wavelength of 540 nm to estimate the quantity of the cells in terms of the protein quantity. Designating the protein quantity in the control to which no compound solution was added as 100%, the proportion of the residual protein quantity in each treated group was calculated, and IC50, which was the concentration of the compound required to inhibit the residual protein quantity to 50% the quantity of the control, was calculated.

Structure (SMILES): C(=C\c1nc(COc2ccc(CCCn3ccnc3)cc2)co1)/c1ccccc1 [Compound 8, 4-[4-[3-(1-imidazolyl)propyl]phenoxymethyl]-2-[(E)-2-phenylethenyl]oxazole]
- activity at 0.4 µM (HER2; MCF7, 0.4 μM): 67%
- activity at 1.6 µM (HER2; MCF7, 1.6 μM): 41%
- activity at 6.3 µM (HER2; MCF7, 6.3 μM): 32%
- activity at 25 µM (HER2; MCF7, 25 μM): 30%
- Tumor growth rate (%) ([1]; castrated group (castrated without compound: 69)): 55%
- Tumor growth rate (%) ([1]; non-castrated, tumor volume vs control): 80%
- Inhibition of implanted tumor growth ([1]; LNCaP, athymic nude mice): inhibiting tumor growth of hormone dependent prostate cancer LNCaP
- Effect of castration on tumor growth inhibiting effect ([1]; LNCaP, castrated athymic nude mice): further enhanced when the hormone levels were reduced by castration
- Selective inhibition of cell growth [2]: inhibit specifically the cell growth of human mammary cancer cell line
